Test results as given in patent US20150291565A1, “INDOLE COMPOUNDS AND THEIR USE AS ANTIMICROBIALS” (Memorial Sloan-Kettering Cancer Center, priority 2012, published 2015).
≈ marks a conversion by molar mass, not a printed value. Where two headings read alike, the source gives them in different places.

Key:
[1] = test system: S. pneumoniae ATCC 700674 (PRSP); assay: Broth dilution MIC, S. pneumoniae ATCC 700674; format: cell-based; settings: Streptococcus pneumoniae
[2] = test system: M. smegmatis (mc2155); assay: Disk diffusion assay, zone of inhibition, M. smegmatis; format: cell-based; settings: disk diffusion zone of inhibition
[3] = test system: S. pneumoniae ATCC 6301 (PSSP); assay: Broth dilution MIC, S. pneumoniae ATCC 6301; format: cell-based; settings: Streptococcus pneumoniae
[4] = test system: E. faecalis ATCC 29212 (VRE); assay: Broth dilution MIC, E. faecalis ATCC 29212; format: cell-based
[5] = test system: P. aeruginosa ATCC 9027; assay: Broth dilution MIC, P. aeruginosa ATCC 9027; format: cell-based; settings: Pseudomonas aeruginosa
[6] = test system: MRSA; assay: Disk diffusion assay, zone of inhibition, MRSA; format: cell-based, Staphylococcus aureus; settings: disk diffusion zone of inhibition
[7] = test system: E. faecium CT-26; assay: Broth dilution MIC, E. faecium CT-26; format: cell-based; settings: Enterococcus faecium
[8] = test system: C. albicans ATCC 14053; assay: Broth dilution MIC, C. albicans ATCC 14053; format: cell-based; settings: Candida albicans, ATCC14053; Table 1; range 64 down to 0.12 μg/ml
Protocol: In vitro Anti-bacterial & Anti-fungal Activity Assay: All test compounds were prepared as 6.4 mg/ml stock solutions in DMSO and further diluted according to the NCCLS M7-A6 (Page 5) document with sterile water or appropriate diluent. A working stock of 256 μg/ml was used to do 1:2 serial dilutions in 96-well plates. […] The inoculums were prepared by making a direct sterile water suspension of isolated colonies from 18 to 24 hr agar plates for all organisms (Mueller Hinton, Blood Agar or SDA plates). Each bacterial suspension was adjusted to read between 0.09 and 0.11 absorbance at 620 nm. […] These were further diluted 1/100 in appropriate broth for inoculating the 96-well plates. The C. albicans suspension was adjusted to read between 70 and 75% Transmittance at 530 nm and then diluted 1/500 in RPMI+MOPS broth. All aerobic bacterial and fungal plates were incubated for 18 hrs. at 35° C. […] Plates were read using a Beckman Automated Plate Reader at 650 nm. Readings were confirmed by visual examination of plates. (See Table 1, Table 2, Table 3, and Table 4). […] It is important to note that positive results against C. albicans are often indicative of broad spectrum antifungal activity, while negative results are not necessarily conclusory of a lack of activity against other fungus.

[9] = test system: S. aureus BAA-39 (MDR); assay: Broth dilution MIC, S. aureus BAA-39; format: cell-based; settings: Staphylococcus aureus, BAA39
[10] = test system: E. faecium ATCC 700221 (VRE); assay: Broth dilution MIC, E. faecium ATCC 700221; format: cell-based
[11] = test system: E. coli ECM 1694; assay: Broth dilution MIC, E. coli ECM 1694; format: cell-based; settings: Escherichia coli
[12] = test system: K. pneumoniae ATCC 13883; assay: Broth dilution MIC, K. pneumoniae ATCC 13883; format: cell-based; settings: Klebsiella pneumoniae
[13] = test system: E. coli ATCC 25922; assay: Broth dilution MIC, E. coli ATCC 25922; format: cell-based; settings: Escherichia coli
[14] = test system: S. aureus ATCC 29213 (MSSA); assay: Broth dilution MIC, S. aureus ATCC 29213; format: cell-based; settings: Staphylococcus aureus
[15] = test system: K. pneumoniae ATCC 51503; assay: Broth dilution MIC, K. pneumoniae ATCC 51503; format: cell-based; settings: Klebsiella pneumoniae
[16] = test system: S. aureus ATCC 33591 (MRSA); assay: Broth dilution MIC, S. aureus ATCC 33591; format: cell-based; settings: Staphylococcus aureus
[17] = Table 1, range 64 down to 0.12 μg/ml, read-out: MIC S. pneumoniae ATCC 700674
[18] = Table 2, broth dilution MIC in ug/ml, read-out: MIC S pneumonia ATCC 700674 PRSP
[19] = ATCC6301, Table 1, range 64 down to 0.12 μg/ml, read-out: MIC S. pneumoniae ATCC 6301
[20] = ATCC6301, Table 2, broth dilution MIC in ug/ml, read-out: MIC S pneumonia ATCC 6301 PSSP
[21] = Enterococcus faecalis, Table 1, range 64 down to 0.12 μg/ml, read-out: MIC E. faecalis ATCC 29212
[22] = Table 2, broth dilution MIC in ug/ml, read-out: MIC E faecalis ATCC 29212 VRE
[23] = ATCC 9026 / ATCC 9027, Table 2, broth dilution MIC in ug/ml, read-out: MIC P aeruginosa ATCC 9026
[24] = ATCC9027, Table 1, range 64 down to 0.12 μg/ml, read-out: MIC P. aeruginosa ATCC 9027
[25] = CT26, Table 1, range 64 down to 0.12 μg/ml, read-out: MIC E. faecium CT-26
[26] = CT26, Table 2, broth dilution MIC in ug/ml, read-out: MIC E faecium CT-25
[27] = Table 1, range 64 down to 0.12 μg/ml, read-out: MIC S. aureus BAA-39
[28] = Table 2, broth dilution MIC in ug/ml, read-out: MIC S aureus BAA-39 MDR
[29] = Enterococcus faecium, Table 1, range 64 down to 0.12 μg/ml, read-out: MIC E. faecium ATCC 700221
[30] = Table 2, broth dilution MIC in ug/ml, read-out: MIC E faecium ATCC 700221 VRE
[31] = ECM1694, Table 1, range 64 down to 0.12 μg/ml, read-out: MIC E. coli ECM 1694
[32] = ECM1694, Table 2, broth dilution MIC in ug/ml, read-out: MIC E. coli ECM 1693
[33] = ATCC13883, Table 1, range 64 down to 0.12 μg/ml, read-out: MIC K. pneumoniae ATCC 13883
[34] = ATCC13883, Table 2, broth dilution MIC in ug/ml, read-out: MIC K pneumonia ATCC 13883
[35] = ATCC 25921 / ATCC 25922, Table 2, broth dilution MIC in ug/ml, read-out: MIC E. coli ATCC 25921
[36] = ATCC25922, Table 1, range 64 down to 0.12 μg/ml, read-out: MIC E. coli ATCC 25922
[37] = Table 1, range 64 down to 0.12 μg/ml, read-out: MIC S. aureus ATCC 29213
[38] = Table 2, broth dilution MIC in ug/ml, read-out: MIC S aureus ATCC 29213 MSSA
[39] = ATCC51503, Table 1, range 64 down to 0.12 μg/ml, read-out: MIC K. pneumoniae ATCC 51503
[40] = ATCC51503, Table 2, broth dilution MIC in ug/ml, read-out: MIC K pneumonia ATCC 51503
[41] = Table 1, range 64 down to 0.12 μg/ml, read-out: MIC S. aureus ATCC 33591
[42] = Table 2, broth dilution MIC in ug/ml, read-out: MIC S aureus ATCC 33591 MRSA

Compound	MIC [1, 17] [µg/mL]	MIC [1, 18] [µg/mL]	Zone Size M. smegmatis [2] [mm]	MIC [3, 19] [µg/mL]	MIC [3, 20] [µg/mL]	MIC [4, 21] [µg/mL]	MIC [4, 22] [µg/mL]	MIC [5, 23] [µg/mL]	MIC [5, 24] [µg/mL]	Zone Size MRSA [6] [mm]	MIC [7, 25] [µg/mL]	MIC [7, 26] [µg/mL]	MIC [8] [µg/mL]	MIC [9, 27] [µg/mL]	MIC [9, 28] [µg/mL]	MIC [10, 29] [µg/mL]	MIC [10, 30] [µg/mL]	MIC [11, 31] [µg/mL]	MIC [11, 32] [µg/mL]	MIC [12, 33] [µg/mL]	other results
c1cc(-c2cc3ccc(C4=NCCN4)cc3[nH]2)ccc1NC1CCNCC1 [SKI-6]	> 64	64 (≈ 178 µM)	16.3	32 (≈ 89 µM)	32 (≈ 89 µM)	> 64	64 (≈ 178 µM)	64 (≈ 178 µM)	> 64	15	64 (≈ 178 µM)	64 (≈ 178 µM)	> 64	8 (≈ 22.3 µM)	8 (≈ 22.3 µM)	> 64	64 (≈ 178 µM)	4 (≈ 11.1 µM)	4 (≈ 11.1 µM)	> 64	MIC [12, 34]: 64 µg/mL (≈ 178 µM); MIC [13, 35]: 32 µg/mL (≈ 89 µM); MIC [13, 36]: 32 µg/mL (≈ 89 µM); MIC [14, 37]: 8 µg/mL (≈ 22.3 µM); MIC [14, 38]: 8 µg/mL (≈ 22.3 µM); MIC [15, 39]: > 64 µg/mL; MIC [15, 40]: 64 µg/mL (≈ 178 µM); MIC [16, 41]: 8 µg/mL (≈ 22.3 µM); MIC [16, 42]: 8 µg/mL (≈ 22.3 µM)
CN1CCC(Nc2ccc(-c3cc4ccc(C5=NCCN5)cc4[nH]3)cc2)CC1 [SKI-7]	32 (≈ 85.7 µM)	32 (≈ 85.7 µM)	30	4 (≈ 10.7 µM)	4 (≈ 10.7 µM)	16 (≈ 42.8 µM)	16 (≈ 42.8 µM)	64 (≈ 171 µM)	> 64	19	16 (≈ 42.8 µM)	16 (≈ 42.8 µM)	32 (≈ 85.7 µM)	2 (≈ 5.35 µM)	2 (≈ 5.35 µM)	16 (≈ 42.8 µM)	16 (≈ 42.8 µM)	0.25 (≈ 0.669 µM)	0.25 (≈ 0.669 µM)	> 64	MIC [12, 34]: 64 µg/mL (≈ 171 µM); MIC [13, 35]: 2 µg/mL (≈ 5.35 µM); MIC [13, 36]: 2 µg/mL (≈ 5.35 µM); MIC [14, 37]: 2 µg/mL (≈ 5.35 µM); MIC [14, 38]: 2 µg/mL (≈ 5.35 µM); MIC [15, 39]: > 64 µg/mL; MIC [15, 40]: 64 µg/mL (≈ 171 µM); MIC [16, 41]: 2 µg/mL (≈ 5.35 µM); MIC [16, 42]: 2 µg/mL (≈ 5.35 µM)
Nc1ccc(Nc2ccc(-c3cc4ccc(C5=NCCN5)cc4[nH]3)cc2)cc1 [SKI-8]	32 (≈ 87.1 µM)	32 (≈ 87.1 µM)	24	8 (≈ 21.8 µM)	8 (≈ 21.8 µM)	8 (≈ 21.8 µM)	8 (≈ 21.8 µM)	64 (≈ 174 µM)	> 64	12	4 (≈ 10.9 µM)	4 (≈ 10.9 µM)	64 (≈ 174 µM)	16 (≈ 43.5 µM)	16 (≈ 43.5 µM)	4 (≈ 10.9 µM)	4 (≈ 10.9 µM)	2 (≈ 5.44 µM)	2 (≈ 5.44 µM)	> 64	MIC [12, 34]: 64 µg/mL (≈ 174 µM); MIC [13, 35]: 32 µg/mL (≈ 87.1 µM); MIC [13, 36]: 32 µg/mL (≈ 87.1 µM); MIC [14, 37]: 16 µg/mL (≈ 43.5 µM); MIC [14, 38]: 16 µg/mL (≈ 43.5 µM); MIC [15, 39]: > 64 µg/mL; MIC [15, 40]: 64 µg/mL (≈ 174 µM); MIC [16, 41]: 8 µg/mL (≈ 21.8 µM); MIC [16, 42]: 8 µg/mL (≈ 21.8 µM)
